Measured values published in patent US9834571B2, “Compounds for inhibiting cell proliferation in EGFR-driven cancers” (ARIAD Pharmaceuticals, Inc., priority 2012, dated 2017).
pIC50: −log10 of the molar value. Read-outs that look alike come from different tables or passages of the source.

Tests used:
[1] = target: human EGFR (native sequence) (Homo sapiens, UniProt P00533); test: Kinase inhibitory activity against human EGFR (native sequence); type: biochemical; conditions: 10 μM ATP, read-out: IC50 for kinase inhibition, EGFR
Procedure: (§1) Kinase inhibitory activity of the compounds was measured against human EGFR (native sequence) and against EGFR bearing the L858R mution and the L858R/T790M double mutation (EGFR, L858R, and L858R/T790M, respectively in Table 1). Additional assays can be conducted with EGFR deletion mutants such as delE746-A750 with or without the additional T790M mutation. Assay conditions included 10 pt curves with 3 μM top concentration (singlicates) and 10 μM ATP.

EGFR L858R = EGFR L858R (Homo sapiens, UniProt P00533, L858R); test: Kinase inhibitory activity against EGFR bearing the L858R mutation; type: biochemical; conditions: 10 μM ATP, read-out: IC50 for kinase inhibition, EGFR L858R
Procedure: as §1

EGFR L858R/T790M = EGFR L858R/T790M (Homo sapiens, UniProt P00533, L858R/T790M); test: Kinase inhibitory activity against EGFR bearing the L858R/T790M double mutation; type: biochemical; conditions: 10 μM ATP, read-out: IC50 for kinase inhibition, EGFR L858R T790M
Procedure: as §1

[2] = target: T1, BaF3 cells expressing the target EGFR mutations (Homo sapiens, UniProt P00533, T790M, cells depend on it, form not given); test: Antiproliferative activity (MTT) against BaF3 cells expressing the target EGFR mutations; type: cell-based; conditions: BAF3 EGFR DEL T790M PURO POOL cells, read-out: IC50, BAF3 EGFR DEL T790M PURO POOL
T1 construct: IC50, BAF3 EGFR DEL T790M PURO POOL; other: BAF3 EGFR DEL T790M PURO POOL cells, MTT; other: BAF3 EGFR DEL T790M PURO POOL cells; MTT
Procedure: (§2) We also assessed the antiproliferative activity of compounds of Formula (I) against BaF3 cells expressing the target EGFR mutations or control (i.e., cell lines expressing wildtype EGFR). Assays were conducted using MTT.

[3] = target: T2, BaF3 cells expressing the target EGFR mutations (Homo sapiens, UniProt P00533, T790M/L858R, cells depend on it); test: as above; type: cell-based; conditions: BAF3 EGFR L858R-T790M PURO POOL cells, read-out: IC50, BAF3 EGFR L858R-T790M PURO POOL
T2 construct: IC50, BAF3 EGFR L858R-T790M PURO POOL; other: BAF3 EGFR L858R-T790M PURO POOL cells, MTT; IC50, BAF3 EGFR L858R-T790M PURO POOL; other: BAF3 EGFR L858R-T790M PURO POOL cells; MTT
Procedure: as §2

[4] = tested on: BaF3 cells expressing wildtype EGFR; test: Antiproliferative activity (MTT) against control BaF3 cells expressing wildtype EGFR; type: cell-based
Procedure: as §2

[5] = 10 pt curves, 3 μM top concentration
[6] = Mus musculus, BAF3 parental cells
[7] = EGFR L858R/T790M double mutation
[8] = Mus musculus, BAF3 PARENTAL cells (control)

EGFR L858R/T790M, sequence (P00533 25-1210 T790M/L858R): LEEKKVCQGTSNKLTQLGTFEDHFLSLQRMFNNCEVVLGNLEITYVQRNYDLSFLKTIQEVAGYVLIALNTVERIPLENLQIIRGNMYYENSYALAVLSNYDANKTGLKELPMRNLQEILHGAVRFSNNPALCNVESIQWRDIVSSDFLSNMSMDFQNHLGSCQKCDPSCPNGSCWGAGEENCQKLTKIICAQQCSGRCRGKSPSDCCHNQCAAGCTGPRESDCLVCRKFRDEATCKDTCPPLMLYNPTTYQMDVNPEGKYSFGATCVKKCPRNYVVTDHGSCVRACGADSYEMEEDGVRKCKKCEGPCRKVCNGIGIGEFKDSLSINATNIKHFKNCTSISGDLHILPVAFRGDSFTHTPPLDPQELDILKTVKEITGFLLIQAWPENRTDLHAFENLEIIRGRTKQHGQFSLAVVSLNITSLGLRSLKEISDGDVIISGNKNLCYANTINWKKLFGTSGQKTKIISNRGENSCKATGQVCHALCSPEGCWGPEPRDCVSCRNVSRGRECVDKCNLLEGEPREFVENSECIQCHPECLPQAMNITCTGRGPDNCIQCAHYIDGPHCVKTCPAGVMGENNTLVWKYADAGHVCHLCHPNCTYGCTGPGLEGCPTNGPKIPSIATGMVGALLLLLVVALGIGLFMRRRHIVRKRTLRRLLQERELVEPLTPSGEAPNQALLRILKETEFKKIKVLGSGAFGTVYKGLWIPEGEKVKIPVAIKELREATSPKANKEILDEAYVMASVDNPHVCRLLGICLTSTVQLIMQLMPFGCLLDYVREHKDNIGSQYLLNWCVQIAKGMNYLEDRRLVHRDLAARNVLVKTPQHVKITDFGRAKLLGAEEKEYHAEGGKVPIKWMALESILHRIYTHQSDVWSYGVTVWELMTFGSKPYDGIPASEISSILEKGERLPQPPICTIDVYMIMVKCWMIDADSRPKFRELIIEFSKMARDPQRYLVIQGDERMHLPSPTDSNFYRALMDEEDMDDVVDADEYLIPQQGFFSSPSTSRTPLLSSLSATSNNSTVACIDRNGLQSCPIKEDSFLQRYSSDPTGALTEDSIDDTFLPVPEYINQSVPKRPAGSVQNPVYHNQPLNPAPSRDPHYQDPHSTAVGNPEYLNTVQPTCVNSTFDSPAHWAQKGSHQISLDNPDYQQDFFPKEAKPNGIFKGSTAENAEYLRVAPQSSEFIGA
T1 sequence (P00533 with tags, fused parts or gaps DEL746-750/T790M, form open): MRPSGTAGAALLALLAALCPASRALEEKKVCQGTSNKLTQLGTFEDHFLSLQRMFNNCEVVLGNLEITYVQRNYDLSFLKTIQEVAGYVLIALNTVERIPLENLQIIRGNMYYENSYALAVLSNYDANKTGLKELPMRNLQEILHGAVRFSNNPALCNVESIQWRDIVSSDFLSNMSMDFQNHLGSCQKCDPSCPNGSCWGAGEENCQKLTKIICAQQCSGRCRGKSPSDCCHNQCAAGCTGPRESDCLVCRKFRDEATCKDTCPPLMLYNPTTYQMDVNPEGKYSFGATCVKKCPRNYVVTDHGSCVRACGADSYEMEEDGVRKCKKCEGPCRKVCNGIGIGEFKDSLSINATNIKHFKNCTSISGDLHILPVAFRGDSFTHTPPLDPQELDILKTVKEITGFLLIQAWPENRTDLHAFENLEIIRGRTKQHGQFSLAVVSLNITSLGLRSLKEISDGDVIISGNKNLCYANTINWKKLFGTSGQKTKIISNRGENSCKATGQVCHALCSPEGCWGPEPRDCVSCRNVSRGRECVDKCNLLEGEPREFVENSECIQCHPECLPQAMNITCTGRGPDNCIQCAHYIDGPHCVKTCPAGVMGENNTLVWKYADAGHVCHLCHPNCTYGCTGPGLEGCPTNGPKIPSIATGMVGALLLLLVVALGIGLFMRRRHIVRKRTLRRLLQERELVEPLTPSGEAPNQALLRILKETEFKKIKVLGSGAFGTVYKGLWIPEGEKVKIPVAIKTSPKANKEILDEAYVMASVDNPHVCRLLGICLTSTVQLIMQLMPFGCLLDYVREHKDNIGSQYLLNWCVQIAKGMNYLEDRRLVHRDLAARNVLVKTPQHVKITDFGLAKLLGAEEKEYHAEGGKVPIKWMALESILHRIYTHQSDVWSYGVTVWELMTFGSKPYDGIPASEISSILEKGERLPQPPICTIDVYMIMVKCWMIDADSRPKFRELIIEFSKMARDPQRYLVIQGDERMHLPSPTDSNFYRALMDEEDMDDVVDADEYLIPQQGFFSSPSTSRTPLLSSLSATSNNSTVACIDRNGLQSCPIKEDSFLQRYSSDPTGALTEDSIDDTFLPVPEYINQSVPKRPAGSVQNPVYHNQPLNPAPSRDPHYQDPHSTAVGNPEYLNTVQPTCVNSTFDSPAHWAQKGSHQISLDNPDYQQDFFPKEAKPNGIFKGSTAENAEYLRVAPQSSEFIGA
EGFR L858R, sequence (P00533 25-1210 L858R): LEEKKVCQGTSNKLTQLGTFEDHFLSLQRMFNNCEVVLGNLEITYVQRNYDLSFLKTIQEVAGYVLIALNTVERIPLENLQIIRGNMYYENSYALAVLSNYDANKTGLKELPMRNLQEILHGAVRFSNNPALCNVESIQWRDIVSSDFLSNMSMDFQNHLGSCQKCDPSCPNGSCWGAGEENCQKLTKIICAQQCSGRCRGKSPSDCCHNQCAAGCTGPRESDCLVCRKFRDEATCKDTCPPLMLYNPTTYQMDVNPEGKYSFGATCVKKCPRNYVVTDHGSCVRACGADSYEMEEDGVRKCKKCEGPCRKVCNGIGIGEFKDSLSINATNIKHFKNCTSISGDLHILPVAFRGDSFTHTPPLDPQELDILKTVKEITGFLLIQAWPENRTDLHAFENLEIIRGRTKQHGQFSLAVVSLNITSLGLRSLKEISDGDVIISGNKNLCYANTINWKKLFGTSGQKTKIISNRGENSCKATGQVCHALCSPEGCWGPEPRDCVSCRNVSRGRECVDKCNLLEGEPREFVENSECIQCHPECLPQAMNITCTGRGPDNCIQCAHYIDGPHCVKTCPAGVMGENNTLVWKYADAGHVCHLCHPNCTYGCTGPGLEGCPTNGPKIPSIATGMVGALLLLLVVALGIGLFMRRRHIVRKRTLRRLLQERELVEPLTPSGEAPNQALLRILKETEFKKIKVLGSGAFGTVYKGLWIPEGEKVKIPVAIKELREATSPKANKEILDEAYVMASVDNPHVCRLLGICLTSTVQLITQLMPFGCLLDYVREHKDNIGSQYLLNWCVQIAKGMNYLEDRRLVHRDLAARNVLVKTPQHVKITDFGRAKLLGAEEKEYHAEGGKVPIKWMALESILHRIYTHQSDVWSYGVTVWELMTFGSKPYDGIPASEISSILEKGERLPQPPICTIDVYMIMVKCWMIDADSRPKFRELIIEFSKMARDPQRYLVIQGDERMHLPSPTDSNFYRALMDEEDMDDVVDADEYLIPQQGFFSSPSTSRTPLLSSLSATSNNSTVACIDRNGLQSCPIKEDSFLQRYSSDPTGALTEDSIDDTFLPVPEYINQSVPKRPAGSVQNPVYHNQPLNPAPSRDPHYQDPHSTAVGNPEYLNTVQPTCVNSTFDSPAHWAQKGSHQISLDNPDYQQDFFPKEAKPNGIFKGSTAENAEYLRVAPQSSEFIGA
T2 sequence (P00533 whole entry T790M/L858R): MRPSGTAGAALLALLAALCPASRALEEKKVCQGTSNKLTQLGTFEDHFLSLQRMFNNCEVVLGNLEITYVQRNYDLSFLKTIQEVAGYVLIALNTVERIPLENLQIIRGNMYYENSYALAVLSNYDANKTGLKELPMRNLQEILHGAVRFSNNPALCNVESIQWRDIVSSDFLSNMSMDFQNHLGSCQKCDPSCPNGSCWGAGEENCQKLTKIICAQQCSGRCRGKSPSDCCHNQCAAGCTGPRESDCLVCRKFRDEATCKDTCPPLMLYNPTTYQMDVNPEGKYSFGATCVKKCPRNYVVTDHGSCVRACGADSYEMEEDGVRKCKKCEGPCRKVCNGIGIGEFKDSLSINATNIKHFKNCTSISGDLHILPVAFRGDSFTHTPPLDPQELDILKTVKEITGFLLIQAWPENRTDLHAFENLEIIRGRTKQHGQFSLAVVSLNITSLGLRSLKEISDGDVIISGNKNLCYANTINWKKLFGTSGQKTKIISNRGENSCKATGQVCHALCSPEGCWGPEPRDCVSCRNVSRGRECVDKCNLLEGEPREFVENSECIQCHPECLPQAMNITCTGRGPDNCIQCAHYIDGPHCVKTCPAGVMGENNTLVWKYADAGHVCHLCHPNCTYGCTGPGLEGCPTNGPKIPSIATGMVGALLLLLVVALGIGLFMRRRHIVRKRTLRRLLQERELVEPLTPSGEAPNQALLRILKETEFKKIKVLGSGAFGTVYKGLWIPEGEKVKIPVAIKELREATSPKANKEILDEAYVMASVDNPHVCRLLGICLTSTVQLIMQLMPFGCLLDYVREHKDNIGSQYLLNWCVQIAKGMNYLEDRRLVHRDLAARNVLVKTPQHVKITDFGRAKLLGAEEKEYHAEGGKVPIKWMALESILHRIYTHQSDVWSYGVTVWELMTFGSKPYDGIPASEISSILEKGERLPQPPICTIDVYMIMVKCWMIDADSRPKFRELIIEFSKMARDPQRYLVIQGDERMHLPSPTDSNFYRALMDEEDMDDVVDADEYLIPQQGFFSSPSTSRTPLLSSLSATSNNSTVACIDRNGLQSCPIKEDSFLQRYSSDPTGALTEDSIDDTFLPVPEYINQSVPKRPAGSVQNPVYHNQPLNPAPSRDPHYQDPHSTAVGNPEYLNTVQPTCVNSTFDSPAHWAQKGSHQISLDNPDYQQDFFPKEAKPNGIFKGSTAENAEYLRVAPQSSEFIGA

pIC50 [1, 5] | pIC50 (EGFR L858R; [5]) | pIC50 (EGFR L858R/T790M; [5]) | GI50 [2] | GI50 [3] | pIC50 ([1]; human EGFR native sequence) | pIC50 (EGFR L858R; EGFR L858R) | pIC50 (EGFR L858R/T790M; [7]) | Structure (SMILES) | pIC50 [4, 6] | pIC50 [4, 8] | pIC50 ([4]; BAF3 parental cells)
6.60 to 7.00 | > 7.30 | > 7.30 | < 50 nM | < 50 nM |  |  |  | C=C(C)C(=O)Nc1cc(Nc2ncc(Cl)c(Nc3ccccc3P(C)(C)=O)n2)c(OC)cc1N1CC[C@@H](N(C)C)C1 (racemic) [Example 113, rac-(R)-N-(5-((5-chloro-4-((2-(dimethylphosphoryl)phenyl)amino)pyrimidin-2-yl)amino)-2-(3-(dimethylamino)pyrrolidin-1-yl)-4-methoxyphenyl)methacrylamide] | ≤ 6.60 |  | 
 |  |  | < 50 nM | < 50 nM | > 7.30 | > 7.30 | > 7.30 | C=CC(=O)Nc1cc(Nc2ncc(Cl)c(Nc3ccccc3P(C)(C)=O)n2)c(OC)cc1O[C@@H]1CCCN(C)C1 (single isomer, unassigned) [Example 14] |  | ≤ 6.60 | 
 |  |  | < 50 nM | < 50 nM | > 7.30 | > 7.30 | > 7.30 | C=CC(=O)Nc1cc(Nc2ncc(Cl)c(Nc3ccccc3P(C)(C)=O)n2)c(OC)cc1O[C@H]1CCCN(C)C1 (single isomer, unassigned) [Example 16] |  | ≤ 6.60 | 
 |  |  | < 50 nM | < 50 nM | > 7.30 | > 7.30 | > 7.30 | C=CC(=O)Nc1cc(Nc2ncc(Cl)c(Nc3ccccc3P(C)(C)=O)n2)c(OC)cc1N1CC[C@@H](N(C)C)C1 (stereo in doubt) [Example 26, rac-(R)-N-(5-((5-chloro-4-((2-(dimethylphosphoryl)phenyl)amino)pyrimidin-2-yl)amino)-2-(3-(dimethylamino)pyrrolidin-1-yl)-4-methoxyphenyl)acrylamide] |  | ≤ 6.60 | 
 |  |  | < 50 nM | < 50 nM | > 7.30 | > 7.30 | > 7.30 | C=CC(=O)Nc1cc(Nc2ncc(Cl)c(Nc3ccccc3P(C)(C)=O)n2)c(OC)cc1N1CC[C@H](N(C)C)C1 (stereo in doubt) [Example 29, rac-(R)-N-(5-((5-chloro-4-((2-(dimethylphosphoryl)phenyl)amino)pyrimidin-2-yl)amino)-2-(3-(dimethylamino)pyrrolidin-1-yl)-4-methoxyphenyl)acrylamide] |  | ≤ 6.60 | 
 |  |  | < 50 nM | < 50 nM | > 7.30 | > 7.30 | > 7.30 | C=CC(=O)Nc1cc(Nc2ncc(Cl)c(Nc3ccccc3P(C)(C)=O)n2)c(OC)cc1OCCN1CCCC1 [Example 1, N-(5-((5-chloro-4-((2-(dimethylphosphoryl)phenyl)amino)pyrimidin-2-yl)amino)-4-methoxy-2-(2-(pyrrolidin-1-yl)ethoxy)phenyl)acrylamide] |  | ≤ 6.60 | 
 |  |  | ≥ 250 nM |  | 6.60 to 7.00 | > 7.30 | > 7.30 | C=CC(=O)Nc1cc(Nc2ncc(Cl)c(Nc3ccccc3P(C)(C)=O)n2)c(OC)cc1OCCN1CCN(C)CC1 [Example 2, N-(5-((5-chloro-4-((2-(dimethylphosphoryl)phenyl)amino)pyrimidin-2-yl)amino)-4-methoxy-2-(2-(4-methylpiperazin-1-yl)ethoxy)phenyl)acrylamide] |  | ≤ 6.60 | 
 |  |  | 101 to 250 nM | ≥ 250 nM | 7.00 to 7.30 | > 7.30 | > 7.30 | C=CC(=O)Nc1cc(Nc2ncc(Cl)c(Nc3ccccc3P(C)(C)=O)n2)c(OC)cc1OCC1CCN(C)CC1 [Example 3, N-(5-((5-chloro-4-((2-(dimethylphosphoryl)phenyl)amino)pyrimidin-2-yl)amino)-4-methoxy-2-((1-methylpiperidin-4-yl)methoxy)phenyl)acrylamide] |  | ≤ 6.60 | 
 |  |  | 50 to 100 nM | 101 to 250 nM | > 7.30 | > 7.30 | > 7.30 | C=CC(=O)Nc1cc(Nc2ncc(Cl)c(Nc3ccccc3P(C)(C)=O)n2)c(OC)cc1OCCN1CCOCC1 [Example 4, N-(5-((5-chloro-4-((2-(dimethylphosphoryl)phenyl)amino)pyrimidin-2-yl)amino)-4-methoxy-2-(2-morpholinoethoxy)phenyl)acrylamide] |  | ≤ 6.60 | 
 |  |  | 50 to 100 nM | 101 to 250 nM |  |  |  | C=CC(=O)Nc1cc(Nc2ncc(Cl)c(Nc3ccccc3P(C)(C)=O)n2)c(OC)cc1OC1CN(C)C1 [Example 17, N-(5-((5-chloro-4-((2-(dimethylphosphoryl)phenyl)amino)pyrimidin-2-yl)amino)-4-methoxy-2-((1-methylazetidin-3-yl)oxy)phenyl)acrylamide] |  | ≤ 6.60 | 
 |  |  | < 50 nM | < 50 nM |  |  |  | C=CC(=O)Nc1cc(Nc2ncc(Cl)c(Nc3ccccc3P(C)(C)=O)n2)c(OC)cc1OCC1CCCN1C (stereo not shown) [Example 18, N-(5-((5-chloro-4-((2-(dimethylphosphoryl)phenyl)amino)pyrimidin-2-yl)amino)-4-methoxy-2-((1-methylpyrrolidin-2-yl)methoxy)phenyl)acrylamide] |  | ≤ 6.60 | 
 |  |  | < 50 nM | < 50 nM |  |  |  | C=CC(=O)Nc1ccc(F)c(Nc2ncc(Cl)c(Nc3ccccc3P(C)(C)=O)n2)c1 [Example 54, N-(3-((5-chloro-4-((2-(dimethylphosphoryl)phenyl)amino)pyrimidin-2-yl)amino)-4-fluorophenyl)acrylamide] |  | ≤ 6.60 | 
 |  |  | 101 to 250 nM | ≥ 250 nM |  |  |  | C=CC(=O)Nc1cc(Nc2ncc(Cl)c(Nc3ccccc3P(C)(C)=O)n2)c(OC)cc1OCC(CO)N(C)C (stereo not shown) [Example 66, N-(5-((5-chloro-4-((2-(dimethylphosphoryl)phenyl)amino)pyrimidin-2-yl)amino)-2-(2-(dimethylamino)-3-hydroxypropoxy)-4-methoxyphenyl)acrylamide] |  | ≤ 6.60 | 
 |  |  | 101 to 250 nM | ≥ 250 nM |  |  |  | C=CC(=O)N1CCc2cc(OC)c(Nc3ncc(Cl)c(Nc4ccccc4P(C)(C)=O)n3)cc21 [Example 127, 1-(6-((5-chloro-4-((2-(dimethylphosphoryl)phenyl)amino)pyrimidin-2-yl)amino)-5-methoxyindolin-1-yl)prop-2-en-1-one] | ≤ 6.60 |  | 
> 7.30 |  |  | < 50 nM |  |  |  |  | C=CC(=O)Nc1cc(Nc2ncc(Cl)c(Nc3ccccc3P(C)(C)=O)n2)c(C)cc1OC(COC)CN(C)C (stereo not shown) [Example 144, N-(5-((5-chloro-4-((2-(dimethylphosphoryl)phenyl)amino)pyrimidin-2-yl)amino)-2-((1-(dimethylamino)-3-methoxypropan-2-yl)oxy)-4-methylphenyl)acrylamide] |  |  | ≤ 6.60
> 7.30 |  |  | < 50 nM |  |  |  |  | C=CC(=O)Nc1cc(Nc2ncc(Cl)c(Nc3ccccc3P(C)(C)=O)n2)c(Cl)cc1OC(COC)CN(C)C (stereo not shown) [Example 146, N-(4-chloro-5-((5-chloro-4-((2-(dimethylphosphoryl)phenyl)amino)pyrimidin-2-yl)amino)-2-((1-(dimethylamino)-3-methoxypropan-2-yl)oxy)phenyl)acrylamide] |  |  | ≤ 6.60
> 7.30 | > 7.30 | > 7.30 |  |  |  |  |  | C=CC(=O)Nc1cc(Cc2ncc(Cl)c(Nc3ccccc3P(C)(C)=O)n2)c(OC)cc1C#CCN1CCC(C)CC1 [Example 176, N-(5-((5-chloro-4-((2-(dimethylphosphoryl)phenyl)amino)pyrimidin-2-yl)methyl)-4-methoxy-2-(3-(4-methylpiperidin-1-yl)prop-1-yn-1-yl)phenyl)acrylamide] | ≤ 6.60 |  | 
> 7.30 | > 7.30 | > 7.30 |  |  |  |  |  | C=CC(=O)Nc1cc(Cc2ncc(Cl)c(Nc3ccccc3P(C)(C)=O)n2)c(OC)cc1C#CCN(C)C(C)(C)C [Example 177, N-(2-(3-(tert-butyl(methyl)amino)prop-1-yn-1-yl)-5-((5-chloro-4-((2-(dimethylphosphoryl)phenyl)amino)pyrimidin-2-yl)methyl)-4-methoxyphenyl)acrylamide] | ≤ 6.60 |  | 
